Experimental data published in patent US20230296590A1, “Devices and Methods to Induce Adult type Maturation of Human Pluripotent Stem Cell Derived Cardiomyocytes” (priority 2022, published 2023).
“Also recorded” adds a separate entry of the source. Bridge positions count the residues as written; N and C are the ends. Ends that are not written are not given here.

Tests used:
Format in all cases: cell-based, human
hiPSC-CMs [1] = assay: Optical recording of action potential with genetically encoded voltage indicators (Varnam, Arclight); settings: cells on CMM
From the text: Cyto-calcium, Action potential and redox handling. Cytoplasmic calcium and redox status of iPSC-CMs using spinning disk confocal microscope (Olympus/Andor Revolution XD) was monitored. 3rd gen. lentiviral probes using ViraPower™ Lentiviral mix was generated and transduced iPSC-CMs using MOI 5 (multiplicity of infection) that generated good signal to noise ratio. Cytoplasmic targeted roGFP-Grx1 probes(Gutscher et al., 2008), Calcium probe (genetically encoded Ca^2+ indicators (GECIs)-GCamP6f(Hubbi et al., 2013), Arclight(Jin et al., 2012) and Varnam(Kannan et al., 2018) were obtained from Addgene and transferred to pENTR™/SD/D-TOPO® vector using PCR. The vector was sequence verified and then transferred to pLEX_307 vector (Addgene plasmid #41392) that contains the EFlα promoter using the LR reaction. […] The virus was generated for each probe in HEK293-FT cells using an optimized mix of three packaging plasmids (pLP1, pLP2, and pLP/VSVG). The virus was concentrated using PEG-it™ Virus Precipitation Solution (SBI biosciences) that also removes HEK293-FT cell medium.
To monitor the florescence signal from cells transduced with probes, cells were plated at a density of 200,000 per cm^2 on cultured surfaces for at least 10-15 days prior to imaging, to achieve cell-cell coupling. […]
Florescence from cells (transduced with probes) was collected separately at a […] using an electron-multiplying charge-coupled device (EMCCD) camera using Andor Revolution X1 Spinning Disk confocal inverted microscope. […] ROS (roGFP2-Grx) probes were excited with 405 nm and 488 nm laser and emission was detected using bandpass filter of 500 nm-554 nm. […] Recovery of glutathione pool was monitored for 180-240 sec before the utilization of diamide (oxidized) and DTT (reduced) to obtain min and max signal. […] Cells transduced with cytoplasmic GCamp6f were excited at 488 nm and emission was detected using bandpass filter of 500 nm-554 nm. […] The data was analyzed using image J (NIH).

hiPSC-CMs [2] = assay: Sarcoplasmic reticulum calcium content, caffeine-induced Ca2+ release, Fura2 imaging; settings: 10 mM
Protocol: To investigate calcium content of the sarcoplasmic reticulum (SR), Fura2 (ThermoFisher 3 uM) loaded cells were perfused with caffeine. Cells were initially perfused with modified Tyrode solution at 37C (pH 7.4) containing (in mM) 130 NaCl, 5 KCl, 1 MgCl2, 1.2 CaCl2, 20 Na-HEPES, 10 glucose, 1 pyruvate, 0.1% fatty acid free-BSA. After pacing the cells at 0.5 Hz for 30-40 sec, cells were perfused with the modified Tyrode buffer containing caffeine (10 mM). Images were analyzed using image J (NIH). Line plots (trace plots) were generated for both action potential and calcium transients by calculating average intensity (and standard deviation) from 3 biological batches with >100 cells for each timepoint and plotting it against the time (using R).

hiPSC-CMs [3] = assay: Acute pathological hypertrophy model (endothelin-1 treatment), functional evaluation; settings: for effect on FAO / effect on OxPhos / effect on glycolysis: 10 nM, 48 hrs
Protocol: Human iPSC culture and cardiac differentiation. Human iPSCs (WTC-11) were cultured using chemically defined medium and published protocols (Burridge et al., 2014; Tohyama et al., 2013). Undifferentiated iPSCs were seeded (125,000 cells per cm^2) on Geltrex (ThermoScientific)-coated six-well plates and maintained in E8 medium (Life Technologies) for 4 days when they reached 80-85% confluence. Medium was then changed to cardiac differentiation medium (CDM), consisting of RPMI 1640 medium (11875, ThermoScientific), 500 μg/ml O. sativa—derived recombinant human albumin (A9731, Sigma-Aldrich), and 220 μg/ml L-ascorbic acid (A4544-Sigma-Aldrich), containing B27 supplement-insulin free (A1895601 ThermoScientific) to initiate differentiation. On d0-d2, medium was supplemented with 6 μM CHIR99021 (LC Laboratories) for induction of mesoderm. On d4-d5, medium was supplemented with 10 uM IWR (Selleck Chemicals) for cardiac differentiation. Contracting cells are typically noted, starting on d7-d8. To purify cardiac myocytes, a variant of RPMI 1640 medium without D-glucose (11879, Life Technologies) was supplemented with 4 mM sodium lactate (L4263, Sigma-Aldrich) for 2 days on day 10 of differentiation followed by culture in cardiac media, containing B-27™ Supplement with insulin (17504001, ThermoScientific) in CDM medium (Tohyama et al., 2013). Cells were dissociated on d13-d14 using TrypLE (ThermoScientific) and plated/cultured on either flat/anisotropic cell culture surfaces for 15-16 further days (d30 for flat and CMM) or 45 days (d60 for flat culture surface) in cardiac culture media. Cardiac culture media was used in all the conditions from day 13-d14 onwards, and it was composed of RPMI-1640, lipid-enhanced Cellastium S, 220 μg/ml L-ascorbic acid and B27 with insulin. Control flat tissue-culture surfaces were coated with fibronectin at a concentration of 4 μg/cm^2. For hypertrophy induction, day 30 differentiated cells were treated with 10 nM endothelin 1 (E7764 Millipore Sigma) for 48 hrs in cardiac culture media.
Mitochondrial respiration. Cellular energetics was monitored using the Seahorse Bioscience XF instrument in intact cells (non-permeabilized cells) and permeabilized cells(Afzal et al., 2017; Salabei et al., 2014). Intact cell respiration was monitored to evaluate the contribution of oxidative phosphorylation versus glycolysis, whereas permeabilized cell respiration was used to monitor electron transport chain (ETC) complex function/activity using ETC complex specific substrates and fatty acid oxidation.
For permeabilized cell respiration, iPSC-CMs were permeabilized using […] of Seahorse XF Plasma Membrane Permeabilizer (Part #102504-100). In permeabilized cells only OCR is measured. Mitochondria respiration were assayed using Buffer (pH 7.2) containing 137 mM KCl, 2 mM KH2PO4, 0.5 mM EGTA, 2.4 mM MgCl2, 20 mM HEPES with 0.2% fatty acid-free BSA (Sigma). Respiration rates were normalized to the protein concentration using BCA assay. Complex I respiration were evaluated by 5 mM glutamate and 5 mM malate (G/M) to evaluate State 4 respiration; 4 mM ADP was then injected to evaluate State 3 respiration. Maximal respiratory capacity (uncoupled mitochondria) was measured by injecting […]. Coupling of Electron Transport Chain respiration to ATP synthesis were evaluated using the ATP synthase inhibitor oligomycin (4 uM). Complex II respiration were measured using 5 mM succinate. Fatty acid oxidation was measured by injecting 200 uM of Palmitoyl-1-carnitine chloride/2.5 mM Malate and assessing the increase in OCR.
Florescence from cells (transduced with probes) was collected separately at a […] using an electron-multiplying charge-coupled device (EMCCD) camera using Andor Revolution X1 Spinning Disk confocal inverted microscope. Data was acquired with 2×2 pixel binning. ROS (roGFP2-Grx) probes were excited with 405 nm and 488 nm laser and emission was detected using bandpass filter of 500 nm-554 nm. […]

CN(CCOc1ccc(NS(C)(=O)=O)cc1)CCc1ccc(NS(C)(=O)=O)cc1 [Dofetilide]
tolerance of cells to 10 nM dose (hiPSC-CMs [1]; 10 nM): fail to tolerate
effect on action potential (hiPSC-CMs [1]; Dofetilide IKr 3 nM): AP prolongation and early after depolarization (EAD); also recorded: appearance of EAD and APD prolongation

CCN(CC)CC(=O)Nc1c(C)cccc1C [Lidocaine]
reduction of beat frequency (hiPSC-CMs [1]; Lidocaine INa 100 um, 2 biological batches, n=30): ~40%

Cn1c(=O)c2c(ncn2C)n(C)c1=O [caffeine]
calcium amplitude following caffeine exposure (SR load) (hiPSC-CMs [2]; cells matured on CMM): significant increase in amplitude
calcium release from SR following caffeine exposure (hiPSC-CMs [2]; d30 cells): failed to demonstrate the calcium release

endothelin 1 (CSCSSLMDKECVYFCHLDIIW; disulfide 1-15, 3-11; ends not checked; UniProt P05305 53-73, looked up) [ET-1, pathological hypertrophy stimulus (E7764 Millipore Sigma)]
effect on action potential duration (hiPSC-CMs [3]; both d30 and CMM): increase
effect on beating frequency (hiPSC-CMs [3]; both d30 and CMM): decrease
effect on Ca2+ peak amplitude (hiPSC-CMs [3]; cells on CMM): no significant effect
effect on oxidative stress handling (roGFP2 after H2O2) (hiPSC-CMs [3]; cells on CMM): unperturbed
effect on FAO (hiPSC-CMs [3]; cells on CMM): reduction
effect on OxPhos (hiPSC-CMs [3]; cells on CMM): no effect
effect on glycolysis (hiPSC-CMs [3]; cells on CMM): slight increase
effect on respiratory control ratio (state 3/state 4) (hiPSC-CMs [3]; cells on CMM, acute treatment): not affected
effect on Ca2+ peak amplitude (hiPSC-CMs [3]; d30 cells): increase in peak amplitude
effect on oxidative stress handling (roGFP2 after H2O2) (hiPSC-CMs [3]; d30 cells): reduced oxidative stress handling
effect on FAO (hiPSC-CMs [3]; d30 cells): increase
effect on OxPhos (hiPSC-CMs [3]; d30 cells): significantly increased
effect on glycolysis (hiPSC-CMs [3]; d30 cells): significantly increased
